Experimental data published in patent US20100009934A1, “BETA ADRENERGIC RECEPTOR AGONISTS FOR THE TREATMENT OF B-CELL PROLIFERATIVE DISORDERS” (CombinatoRx, Incorporated, priority 2008, published 2010).
“And” between values parts separate entries of the source, which are not always exact repeats. Equal values may be shown once. Read-outs that look alike come from different tables or passages of the source.

Tests used:
[1] = system: Human Multiple Myeloma Cells (MM.1S)
[2] = system: multiple myeloma tumor cells from patients; assay: MTT cell viability assay, multiple myeloma patient tumor cells
Description: Tumor cells were obtained via bone marrow aspirates and affinity selected using CD138-linked magnetic beads.

[3] = system: RPMI-8226 cells; conditions: soft agar, three weeks
Method: The effect of BAR agonists on cells grown in soft agar was also determined. This approach allows the measurement of long term cell viability after single agent or combination treatment. […] Cells were washed and plated in soft agar. After three weeks colonies were counted to determine cell viability.

[4] = system: MM.1S cells; assay: Annexin V / propidium iodide apoptosis assay, MM.1S; type: cell-based, human; conditions: 2 nM bortezomib, 72 hours (FIG. 3)
Method: Effects on cell viability were determined by measuring the percent of cells that were annexin V positive (an early marker for apoptosis) and by measuring the percent of cells propidium iodide (PI) positive, an indicator that cellular membranes are compromised and a marker of cell death.

[5] = system: RPMI-8226 multiple myeloma (MM) xenograft; conditions: Day 19; 10 mg/kg salmeterol, 0.5 mg/kg bortezomib, or both
Method: Dexamethasone was administered by intraperitoneal (IP) injection daily for thirty-six treatments (QD×36). Bortezomib was injected intravenously (IV) every third day for six treatments (Q3D×6).
(§1) Group 1—Vehicle (90% PBS+10% EtOH)
Significant endpoints included mean tumor growth inhibition (TGI) or regression, animal weight loss, and potential toxicity. […] Animals were implanted with cancer cells harvested from tissue culture and allowed to establish tumors in SCID mice. Treatment initiated when the mean tumor volume reached 137 mm^3 in size.

[6] = system: Human Multiple Myeloma Cells (MM.1S); assay: Anti-proliferation assay (ATPLite, 72 hours), MM.1S
[7] = system: Human Multiple Myeloma Cells (ANBL-6)
[8] = system: MM.1S cells; assay: Annexin V/PI FACS assay of control MM.1S and cells cultured one month with salmeterol or salbutamol; type: cell-based, human
Method: Forty eight hours later, the percent of cells positive for Annexin V and propidium iodide (PI) was determined using FACS (FIG. 5).

[9] = system: Human Multiple Myeloma Cells (MM.1S); conditions: Salmeterol 0 μM (single agent), DEX (μM): 0.15, 0.076, 0.038, 0.019, 0.0096
[10] = system: Human Multiple Myeloma Cells (MM.1S); assay: cells; conditions: MM1.S
[11] = system: Human Multiple Myeloma Cells (MM.1S) cultured in the presence of BAR agonist for one month; assay: Antiproliferative activity on MM.1S cultured one month in the presence of salmeterol or salbutamol; type: cell-based; conditions: for percent inhibition of cell proliferation: MM.1S cultured in Salbutamol for one month (final 150 nM), DEX (μM): 2.0, 0.666, 0.23, 0.074, 0.024, 0.0082, 0.00274, 0.0009, 0
Description: A recurrent problem in cancer therapy is that prolonged exposure of tumor cells to chemotherapeutic agents can generate cells resistant to agents that initially have antiproliferative or cell killing activity. […] Cells cultured for one month in the presence of BAR agonist were washed to remove drug and put into 384 well plates for 9×9 dose matrix combination screening with BAR agonists and dexamethasone.

[12] = system: human multiple myeloma xenografts (MM1S); assay: MM.1S xenograft model in SCID mice; type: in vivo, mouse; conditions: Dex 1 mg/kg or salmeterol 10 mg/kg, subcutaneous daily
Method: The human multiple myeloma cell line MM1S was injected subcutaneously into the flanks of SCID mice. Five days following the injection of MM1S cells, animals were randomized into the following four treatment groups (n=6-7) based on tumor size.
as §1
The prepared test, positive, and negative control substances were administered via subcutaneous injection daily for up to 85 Days. During the treatment period, tumor volume and animal body weights were measured 3 times per week (Monday, Wednesday and Friday). The animals were removed from the study if there was overall poor body condition, tumor volume above 3000 mm^3, body weight loss greater than or equal to 20% or ulcerated tumors.
The slope of the tumor volume growth of each animal was calculated from the initial study day until the day each animal was removed from the study. From these slopes the mean change in tumor volume per study day was calculated.

[13] = system: Human Multiple Myeloma Cells (MM.1S); assay: Antiproliferative activity on MM.1S in the presence of beta adrenergic receptor antagonist (CGP 12177A or ICI 118,551); type: cell-based; conditions: Homo sapiens, MM1.S; read-out: percent inhibition of cell proliferation
[14] = system: beta 3 vs. beta 2; conditions: Mol Phar 1994 46(2):357-63; cited from earlier work
[15] = system: human multiple myeloma cells (MM.1R); assay: Antiproliferative activity of salbutamol on MM.1R after transfection of siRNA; type: cell-based; conditions: 72 hours (FIG. 4)
Method: Specific gene silencing was greater than 60% as determined by real time PCR analysis 48 hours post-transfection. At 48 hours post-transfection, cells were exposed to the beta 2 receptor agonist salbutamol and incubated an additional 72 hours, and the compounds were assayed for antiproliferative activity.

[16] = Homo sapiens, MM1.S, read-out: percent inhibition of cell proliferation

CC(C)C[C@H](NC(=O)[C@H](Cc1ccccc1)NC(=O)c1cnccn1)B(O)O [bortezomib]
inhibition [1]: 30.8% and 19.6% | viability at 0.002 µM ([2]; Homo sapiens, 48 h, read-out: tumor cell viability): 80% | colony number per 10,000 cells plated ([3]; 100 nM bortezomib for 5 hours): 39 colonies | colony number per 10,000 cells plated ([3]; 200 nM bortezomib for 5 hours): 7 colonies | cells annexin V positive [4]: 50% | tumor growth inhibition (TGI) [5]: 38%

C[C@@H]1C[C@H]2[C@@H]3CCC4=CC(=O)C=C[C@]4(C)[C@@]3(F)[C@@H](O)C[C@]2(C)[C@@]1(O)C(=O)CO [dexamethasone]
percent inhibition of cell proliferation ([6]; Clenbuterol 0 μM (single agent), Dexamethasone (μM): 0.15, 0.076, 0.038, 0.019, 0.0095, no ICI 118,551): 47% and 38% and 70% and 63% and 56% | percent inhibition of cell proliferation ([6]; naïve MM.1S, Salbutamol 0 μM (single agent), DEX (μM) by row: r8 2.0, r9 0.666, r10 0.23, r11 0.074, r12 0.024, r13 0.0082, r14 0.00274, r15 0.0009): 75% | inhibition [7]: 6.13% | Annexin V/PI+ cells ([8]; cells exposed to salmeterol for one month, 8 nM dexamethasone, 48 hours): 47% | Annexin V/PI+ cells ([8]; cells exposed to salmeterol for one month, 80 nM dexamethasone, 48 hours): 65% | Annexin V/PI+ cells ([8]; control cells, 8 nM dexamethasone, 48 hours (FIG. 5)): 8% | Annexin V/PI+ cells ([8]; control cells, 80 nM dexamethasone, 48 hours (FIG. 5)): 45% | percent inhibition of cell proliferation ([9]; +10 ng/ml IL-6): 26% | percent inhibition of cell proliferation ([9]; no IL-6): 45% and 44% and 32% and 27% | inhibition [1]: 39% | inhibition at 0.15 µM ([10]; read-out: inhibition of proliferation, 0.15 μM dexamethasone, 10 ng/ml IL-6 (Table 53)): 24% | inhibition at 0.15 µM ([10]; read-out: inhibition of proliferation, 0.15 μM dexamethasone, no IL-6 (Table 52)): 52% | inhibition at […] ([11]; Homo sapiens, MM1.S, […] dexamethasone, cells cultured one month in salmeterol (64 nM), Table 48, read-out: inhibition of proliferation): 51% | Reduction in Cell Viability ([2]; patient 1 tumor cells, 48 hours, MTT, Salmeterol 0 nM (single agent), DEX (μM): 4.0, 2.0, 1.0, 0.5, 0.25, 0.125, 0.0625): 50% and 56% and 53% and 46% and 47% | study day by which all animals of the group were removed [12]: ≤ 66 study day

CC(Cc1ccc(OCC(=O)O)cc1)NCC(O)c1cccc(Cl)c1 (stereo not drawn) [BRL37344, (4-(2-((2-(3-chlorophenyl)-2-hydroxyethyl)amino)propyl)phenoxy)acetic acid]
inhibition at 0.01 µM [6, 16]: 10% | inhibition at 0.02 µM [6, 16]: 10% | single agent antiproliferative activity ([6]; MM.1S (Table 45)): not very active | inhibition at 0.01 µM [13]: -8.2% | inhibition at 0.02 µM [13]: -12% | selectivity for beta 3 vs. beta 2 [14]: 76 fold

CC(C)(C)NCC(O)c1ccc(O)c(CO)c1 (stereo not drawn) [salbutamol]
inhibition at 9.1 pM [6, 16]: 10% | inhibition at 0.00375 µM [6, 16]: 15% | inhibition at 0.00625 µM [6, 16]: 30% | inhibition at 0.0125 µM [6, 16]: 39% | inhibition at 0.05 µM [6, 16]: 51% | inhibition at 0.1 µM [6, 16]: 55% | inhibition at 0.2 µM [6, 16]: 58% | inhibition of proliferation ([15]; MM.1R transfected with A2A receptor siRNA or control siRNA): 65-68% | Antiproliferative Activity ([15]; MM.1R transfected with two different siRNA targeting the beta 2 receptor): 39-45% | percent inhibition of cell proliferation ([11]; Salbutamol 0.00375 μM): −5.8% | percent inhibition of cell proliferation ([11]; Salbutamol 0.00625 μM): 4.6% | percent inhibition of cell proliferation ([11]; Salbutamol 0.0125 μM): −1.9% | percent inhibition of cell proliferation ([11]; Salbutamol 0.05 μM): 1.5% | percent inhibition of cell proliferation ([11]; Salbutamol 0.1 μM): 11% | percent inhibition of cell proliferation ([11]; Salbutamol 0.2 μM): 6.8%
